Results as given in PMC11724075, “Small-molecule-induced ERBB4 activation to treat heart failure” (Nature Communications, 2025).
Values joined by “and” are separate entries in the source; they are usually repeats but may differ in a detail not shown here. Equal entries are not always repeated.

Columns and labels:
[1] = test system: ERK1/2 phosphorylation (pERK1/2/ERK1/2); test: Western blot pERK1/2/ERK1/2 in iAMs; assay type: cell-based, rat; details: for pErk/Erk, relative to vehicle of the same time point: iAMs, single replicates; for phosphorylation of ERK1/2 in iAMs (in words): NRG1 10 nM or EF-1 32 µM
Method: (§1) Hearts of the aforementioned transgenic mice were removed immediately after the animals had been killed. Cells and heart tissue were collected in RIPA lysis buffer (Thermo Fisher Scientific, 89900) supplemented with protease inhibitors (Merck, 11836153001) and phosphatase inhibitors (Merck, 4906845001) and the lysates were centrifuged at 14,000 × g for 10 min. The supernatants were collected, supplemented with sample buffer, and incubated at 95 °C for 5 min. Protein quantification was done with Pierce^TM BCA Protein Assay Kits (Thermo Fisher, 23227) according to the manufacturer’s instructions. Equal protein amounts of clarified lysates (20 µg) were subsequently separated by sodium dodecyl sulfate (SDS) polyacrylamide gel electrophoresis (165 V, 400 mA, 60 min) and transferred onto polyvinylidene fluoride membranes by electroblotting (100 V, 400 mA, 90 min). Next, the membranes were incubated for 1 h with Li-Cor blocking buffer (Li-Cor, 927-60001) at RT in Tris-buffered saline (TBS), supplemented with 0.1% Tween (BIO-RAD, 1706531). Next, primary antibodies were added (see below and Table 1a) in Li-Cor blocking buffer supplemented with 0.1% Tween, and the membranes were incubated overnight at 4 °C on a shaker. Following washing with TBS-0.1% Tween, the membranes were incubated for 1 h at RT with corresponding IRDye-conjugated secondary antibodies (See below and Table 1b) in Li-Cor blocking buffer supplemented with […] and 0.1% Tween. The membrane was visualized with the Odessey imaging system.

iAMs = test: EdU proliferation assay in proliferating iAMs; assay type: cell-based, rat; details: for EdU-positive nuclei compared to the vehicle group (in words): EF-1 32 µM or NRG1 0.1 µM, 24 h; for In vitro EdU-positive cell count: individual replicates
Method: EdU proliferation assay was performed using the Click-iT^TM EdU Cell Proliferation Kit for Imaging (ThermoFisher Scientific, C10337) following the protocol. Proliferating iAMs were seeded at a density of 10^5 cells/well in proliferating medium in 24-well plates and incubated overnight. […] Afterwards, the cell culture media were then replaced with 10 µM EdU in proliferating medium and incubated for 24 h at 37 °C. Next, iAMs were fixed with 4% PFA for 30 min at 4 °C. Cells were washed thrice with PBS, permeabilized by incubation with 0.1% Triton X-100 for 10 min at RT and counterstained with DAPI. Images were obtained by fluorescence microscopy (Celena S).

[2] = test system: Akt phosphorylation (pAkt/Akt); test: Western blot pAkt/Akt in iAMs; assay type: cell-based, rat; details: for pAkt/Akt, relative to vehicle of the same time point: iAMs, single replicates; for phosphorylation of Akt in iAMs (in words): NRG1 10 nM or EF-1 32 µM
Method: as §1

HCFs = test: In vitro collagen expression: COL3A1 mRNA in HCFs stimulated with TGF-β1; assay type: cell-based, human; details: for COL3A1 mRNA expression (FC): TGF-β1 10 ng/mL, 24 h, single replicates
Method: HCFs were seeded at a density of 1.5 ×10^5 cells/well in doxycycline-free medium in 12-well plates (Greiner Bio-One, 665180) and incubated overnight. […] Compounds were pre-incubated for 10 min before addition of TGF-β1.
RNA was extracted using Nucleospin RNA XS (Macherey-Nagel, 740902.50) according to the manufacturer’s instructions. For cDNA synthesis, total RNA was added to a mixture containing buffer with random hexamers and reverse transcriptase enzyme (TaqMan reverse transcription reagents, Applied biosystems, N8080234) after which samples were incubated for 10 min at 25 °C, 30 min at 48 °C, and 5 min at 95 °C. RT-qPCR was performed on QuantStudio 3 Real-time PCR system (Applied Biosystems) using Taqman Universal PCR Master Mix (Applied Biosystems, 4304437) and Taqman primers according to the manufacturer’s instructions. Settings were as follows: […] followed by 10 min at 95 °C, 40 cycles (45 cycles for ERBB4) of denaturation at 95 °C for 15 s, and 1 min at 60 °C. All reactions were run in duplicate, and all data were normalized against housekeeping genes glyceraldehyde-3-phosphate dehydrogenase (GAPDH), beta-actin (ACTB), or phosphoglycerate kinase 1 (PGK1). Expression levels were calculated using the comparative cycle method and expressed as fold change (FC) to appropriate controls. The following TaqMan primers were used (Thermo Fisher Scientific): GAPDH (Hs02758991_g1, Mm99999915_g1 and Rn01775763_g1), PGK1 (Hs99999906_m1), ID2 (Hs04187239_m1), BMPR1B (Hs01010965_m1), CACNA2D4 (Hs00297782_m1), DUSP2 (Hs00358879_m1), NR4A1 (Hs00374226_m1), SGK1 (Hs00178612_m1), COL1A1 (Mm00801666_g1), COL3A1 (Hs00943809_m1 and Mm00802305_g1), ERBB4 (Hs00955525_m1 and Rn00572447_m1), ACTB (Mm02619580_g1) and ANP (Mm01255747_g1).

O=C(NC1CC1)C(Sc1nc2ccccc2c(=O)n1C1CCCC1)c1ccccc1 (centres unmarked) [EF-1]
time of peak levels of ERK1/2 phosphorylation ([1]; EF-1): 15 min | pErk/Erk, relative to vehicle of the same time point ([1]; EF-1 32 µM, 0 minutes): 1.078 and 1.057 and 1.137 and 0.8985 | pErk/Erk, relative to vehicle of the same time point ([1]; EF-1 32 µM, 15 minutes): 1.66 and 1.416 and 1.274 and 1.578 | pErk/Erk, relative to vehicle of the same time point ([1]; EF-1 32 µM, 60 minutes): 1.162 and 1.018 and 1.18 and 0.9894 | pErk/Erk, relative to vehicle of the same time point ([1]; EF-1 32 µM, 120 minutes): 0.9869 and 1.003 and 0.9414 and 0.8187 | pErk/Erk, relative to vehicle of the same time point ([1]; EF-1 32 µM, 240 minutes): 0.9968 and 1.428 and 1.0991 and 0.9249 | phosphorylation of ERK1/2 in iAMs (in words) [1]: transient phosphorylation of ERK1/2 | EdU-positive nuclei compared to the vehicle group (in words) (iAMs): significant decrease in EdU-positive nuclei | In vitro EdU-positive cell count (iAMs): 0.7127 and 0.7822 and 0.8185 and 0.7982 and 0.7621 | time of peak Akt phosphorylation ([2]; EF-1): 2 h | pAkt/Akt, relative to vehicle of the same time point ([2]; EF-1 32 µM, 0 minutes): 0.748 and 0.7404 and 0.672 and 0.9718 | pAkt/Akt, relative to vehicle of the same time point ([2]; EF-1 32 µM, 15 minutes): 0.8783 and 0.9705 and 0.9844 and 0.887 | pAkt/Akt, relative to vehicle of the same time point ([2]; EF-1 32 µM, 60 minutes): 1.284 and 1.335 and 1.4576 and 1.506 | pAkt/Akt, relative to vehicle of the same time point ([2]; EF-1 32 µM, 120 minutes): 2.136 and 1.473 and 2.15 and 1.815 | pAkt/Akt, relative to vehicle of the same time point ([2]; EF-1 32 µM, 240 minutes): 2.021 and 1.657 and 2.184 and 2.136 | phosphorylation of Akt in iAMs (in words) [2]: time-dependent phosphorylation of Akt | COL3A1 mRNA expression (FC) (HCFs; EF-1 + SiERBB4, 1e-6 M): 1 | COL3A1 mRNA expression (FC) (HCFs; EF-1 + SiERBB4, 4e-6 M): 0.5373 and 0.7163 and 0.5917 and 0.6311 and 0.7899 and 0.8499 | COL3A1 mRNA expression (FC) (HCFs; EF-1 + SiERBB4, 8e-6 M): 0.8243 and 0.8469 and 0.7111 and 0.7439 and 0.7398 and 0.6183 | COL3A1 mRNA expression (FC) (HCFs; EF-1 + SiERBB4, 1.6e-5 M): 0.5202 and 0.6505 and 0.7517 and 0.6477 and 0.5129 | COL3A1 mRNA expression (FC) (HCFs; EF-1 + SiERBB4, 3.2e-5 M): 0.7721 and 0.6715 and 0.5121 and 0.7108 and 0.5403 and 0.6885 | COL3A1 mRNA expression (FC) (HCFs; EF-1 + SiScr, 1e-6 M): 0.9505 and 1.0731 and 0.9765 | COL3A1 mRNA expression (FC) (HCFs; EF-1 + SiScr, 4e-6 M): 0.3565 and 0.5152 and 0.404 | COL3A1 mRNA expression (FC) (HCFs; EF-1 + SiScr, 8e-6 M): 0.4855 and 0.3848 and 0.5526 | COL3A1 mRNA expression (FC) (HCFs; EF-1 + SiScr, 1.6e-5 M): 0.2758 and 0.3929 and 0.4764 | COL3A1 mRNA expression (FC) (HCFs; EF-1 + SiScr, 3.2e-5 M): 0.4172 and 0.4035 and 0.5599 | decrease of TGF-β1-induced COL3A1 mRNA levels (HCFs; HCFs, dose-dependent, 4–32 µM): up to 50%

Cc1sc2nc(SC(C)C(=O)NCc3ccc4c(c3)OCO4)n(-c3ccccc3)c(=O)c2c1C (centres unmarked) [NA-1]
effect on TGF-β1-induced COL3A1 expression in HCFs (in words) (HCFs; 4–32 µM): did not affect COL3A1 expression | COL3A1 mRNA expression (FC) (HCFs; NA-1, 1e-6 M): 1 | COL3A1 mRNA expression (FC) (HCFs; NA-1, 4e-6 M): 0.6694 and 0.8324 and 0.8909 | COL3A1 mRNA expression (FC) (HCFs; NA-1, 8e-6 M): 0.9443 and 0.7317 and 0.6882 | COL3A1 mRNA expression (FC) (HCFs; NA-1, 1.6e-5 M): 0.7688 and 0.6597 and 0.5112 | COL3A1 mRNA expression (FC) (HCFs; NA-1, 3.2e-5 M): 0.7866 and 0.7983 and 0.6723

neuregulin-1 [NRG1]
phosphorylation of ERK1/2 in iAMs (in words) [1]: time-dependent phosphorylation of ERK1/2 | pErk/Erk, relative to vehicle of the same time point ([1]; NRG1 10 nM, 0 minutes): 0.7394 and 1.087 and 0.6444 | pErk/Erk, relative to vehicle of the same time point ([1]; NRG1 10 nM, 15 minutes): 2.343 and 1.9112 and 1.767 | pErk/Erk, relative to vehicle of the same time point ([1]; NRG1 10 nM, 60 minutes): 3.329 and 2.139 and 1.769 | pErk/Erk, relative to vehicle of the same time point ([1]; NRG1 10 nM, 120 minutes): 1.461 and 2.784 and 4.448 | pErk/Erk, relative to vehicle of the same time point ([1]; NRG1 10 nM, 240 minutes): 3.3773 and 3.181 | EdU-positive nuclei compared to the vehicle group (in words) (iAMs): significant decrease in EdU-positive nuclei | In vitro EdU-positive cell count (iAMs): 0.7207 and 0.8932 and 0.8227 and 0.7581 and 0.7231 | phosphorylation of Akt in iAMs (in words) [2]: significant increase in phosphorylated Akt levels after already 15 minutes | pAkt/Akt, relative to vehicle of the same time point ([2]; NRG1 10 nM, 0 minutes): 1.052 and 0.8332 and 0.8199 | pAkt/Akt, relative to vehicle of the same time point ([2]; NRG1 10 nM, 15 minutes): 5.096 and 6.809 and 6.931 | pAkt/Akt, relative to vehicle of the same time point ([2]; NRG1 10 nM, 60 minutes): 4.363 and 4.094 and 3.405 | pAkt/Akt, relative to vehicle of the same time point ([2]; NRG1 10 nM, 120 minutes): 2.7652 and 3.7648 and 2.637 | pAkt/Akt, relative to vehicle of the same time point ([2]; NRG1 10 nM, 240 minutes): 2.317 and 2.06
